The nature of series [1]: Dissolution test at pH 6.8 according to USP 26. Format: physicochemical. As for the experimental part: A dissolution test is carried out on the microcapsules thus obtained comparing them with anhydrous theophylline in crystalline form.
The dissolution test was performed according to USP 26.
A dissolution test is carried out on the microcapsules obtained in Examples 5 and 6 according to the method previously described for Example 4
Dissolution test was performed according to USP 26
A dissolution test is carried out on the microcapsules thus obtained compared to fluoxetine raw material.

Series [2] is described as follows: Dissolution test at pH 1.2 according to USP 26. To be noted: caffeine. Format: physicochemical. As for the experimental part:
The microcapsules obtained, when analysed with an electronic microscope (FIG. 3), show a distribution of the particles of the active principle within the polymeric membrane in the form of solid particles that are prevalently disposed at the interface between the polymer and the core. […] Dissolution test was performed according to USP 26.

With `Cn1c(=O)c2[nH]cnc2n(C)c1=O` [Anhydrous Theophylline], the “Dissolution % at pH 6.8, 5 min” value in series [1] (theophylline) was determined as 65%. In series [1] (theophylline, T2 second head), the “Dissolution % at pH 6.8, 10 min” value stood at 100%. Moreover, the “Dissolution % at pH 6.8, 15 min” value in series [1] (15 min, theophylline) is 100%.

Turning to `Cn1c(=O)c2c(ncn2C)n(C)c1=O` [Caffeine], in series [2], the “Dissolution % at pH 1.2, 60 min” value amounted to 100%.

In the case of `CNCCC(Oc1ccc(C(F)(F)F)cc1)c1ccccc1` (stereo not shown) [Fluoxetine], in series [1] (fluoxetine), the “Dissolution % at pH 6.8, 5 min” value is on record as 55% and the “Dissolution % at pH 6.8, 10 min” value was 75%. Also, the “Dissolution % at pH 6.8, 20 min” value in series [1] (20 min, fluoxetine) came to 100%.

The values are drawn from patent US20070048385A1, “Microcapsules by coacervation containing a pharmaceutical incorporated in the coating polymer” (priority 2003, published 2007).
